Test results published in PubChem BioAssay AID248 (DTP/NCI, 2004).
Toxic doses and inconclusive results are not listed. Rule as the data show it: active = T/C of 150% or more; inactive = T/C below 125%.

System: L1210 leukemia ip in BDF1 mice, survival T/C
Assay: NCI In Vivo Anticancer Drug Screen. Data for tumor model L1210 Leukemia (intraperitoneal) in B6D2F1 (BDF1) mice
Conditions: endpoint: mean survival time, higher = longer survival
How it was run: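 Each compound was tested against a transplantable tumor grown in mice. The endpoint was survival, with treated animals benchmarked against vehicle controls as a simple ratio.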

[1] = dose: 100.0 mg/kg/injection, schedule: Q01DX009 (ip), vehicle: saline with Tween-80
[2] = dose: 200.0 mg/kg/injection, schedule: Q01DX009 (ip), vehicle: saline with Tween-80
[3] = dose: 400.0 mg/kg/injection, schedule: Q01DX009 (ip), vehicle: saline with Tween-80
[4] = dose: 100.0 mg/kg/injection, schedule: Q04DX003 (ip), vehicle: saline with Tween-80
[5] = dose: 200.0 mg/kg/injection, schedule: Q04DX003 (ip), vehicle: saline with Tween-80
[6] = dose: 400.0 mg/kg/injection, schedule: Q04DX003 (ip), vehicle: saline with Tween-80
[7] = dose: 50.0 mg/kg/injection, schedule: Q01DX001 (ip), vehicle: carboxymethylcellulose (CMC)
[8] = dose: 100.0 mg/kg/injection, schedule: Q01DX001 (ip), vehicle: carboxymethylcellulose (CMC)
[9] = dose: 200.0 mg/kg/injection, schedule: Q01DX001 (ip), vehicle: carboxymethylcellulose (CMC)
[10] = dose: 100.0 mg/kg/injection, schedule: Q01DX009 (ip), vehicle: Klucel (hydroxypropylcellulose) (HPC)
[11] = dose: 200.0 mg/kg/injection, schedule: Q01DX009 (ip), vehicle: Klucel (hydroxypropylcellulose) (HPC)
[12] = dose: 400.0 mg/kg/injection, schedule: Q01DX009 (ip), vehicle: Klucel (hydroxypropylcellulose) (HPC)
[13] = dose: 100.0 mg/kg/injection, schedule: Q04DX003 (ip), vehicle: saline
[14] = dose: 100.0 mg/kg/injection, schedule: Q04DX002 (ip), vehicle: Klucel (hydroxypropylcellulose) (HPC)
[15] = dose: 200.0 mg/kg/injection, schedule: Q04DX002 (ip), vehicle: Klucel (hydroxypropylcellulose) (HPC)
[16] = dose: 400.0 mg/kg/injection, schedule: Q04DX002 (ip), vehicle: Klucel (hydroxypropylcellulose) (HPC)
[17] = dose: 100.0 mg/kg/injection, schedule: Q04DX003 (ip), vehicle: Klucel (hydroxypropylcellulose) (HPC)
[18] = dose: 200.0 mg/kg/injection, schedule: Q04DX003 (ip), vehicle: Klucel (hydroxypropylcellulose) (HPC)
[19] = dose: 100.0 mg/kg/injection, schedule: Q01DX001 (ip), vehicle: saline
[20] = dose: 200.0 mg/kg/injection, schedule: Q01DX001 (ip), vehicle: saline
[21] = dose: 400.0 mg/kg/injection, schedule: Q04DX003 (ip), vehicle: Klucel (hydroxypropylcellulose) (HPC)
[22] = dose: 200.0 mg/kg/injection, schedule: Q04DX003 (ip), vehicle: saline
[23] = dose: 400.0 mg/kg/injection, schedule: Q04DX003 (ip), vehicle: saline

Measured: T/C

CCN(CC)C(C)COC(=O)c1ccc(N)cc1 (stereo not drawn)
inactive: dose: 12.5 mg/kg/injection, schedule: Q01DX009 (ip), vehicle: saline 101 % of control | dose: 25.0 mg/kg/injection, schedule: Q01DX009 (ip), vehicle: saline 101 % of control | dose: 50.0 mg/kg/injection, schedule: Q01DX009 (ip), vehicle: saline 95 % of control

O=C(C[n+]1c(Cl)ccc2ccccc21)c1ccccc1
inactive: dose: 75.0 mg/kg/injection, schedule: Q01DX001 (ip), vehicle: other 94 % of control | dose: 150.0 mg/kg/injection, schedule: Q01DX001 (ip), vehicle: other 100 % of control

O=c1[nH]c(-c2ccccc2)nc(-c2ccccc2)c1CCO
inactive: [1] 92 % of control | [2] 86 % of control | [3] 91 % of control

N#Cc1ccc[n+](CCc2c[nH]c3ccccc23)c1
inactive: dose: 75.0 mg/kg/injection, schedule: Q01DX001 (ip), vehicle: saline 102 % of control

COc1ccc(NC(=O)Nc2ccccc2OC)cc1
inactive: [1] 98 % of control | [4] 105 % of control | [2] 101 % of control | [5] 97 % of control | [3] 98 % of control | [6] 103 % of control

CC12CC3CC(C)(C1)CC(O)(C3)C2
inactive: [7] 101 % of control | [8] 98 % of control | [9] 92 % of control

CCOC(=O)c1ccc(NC(=O)C(Br)C(Br)C(=O)O)cc1 (stereo not drawn)
inactive: [1] 94 % of control | [4] 101 % of control | [2] 94 % of control | [5] 100 % of control | [3] 97 % of control | [6] 101 % of control

O=C(O)c1ccc(Cl)cc1Cl
inactive: dose: 100.0 mg/kg/injection, schedule: Q04DX002 (ip), vehicle: gum acacia 88 % of control | dose: 200.0 mg/kg/injection, schedule: Q04DX002 (ip), vehicle: gum acacia 98 % of control | dose: 400.0 mg/kg/injection, schedule: Q04DX002 (ip), vehicle: gum acacia 100 % of control

Cc1ccc(N=Cc2ccc3c(c2)OCO3)cc1
inactive: dose: 100.0 mg/kg/injection, schedule: Q01DX001 (ip), vehicle: Klucel (hydroxypropylcellulose) (HPC) 100 % of control | [10] 91 % of control | dose: 200.0 mg/kg/injection, schedule: Q01DX001 (ip), vehicle: Klucel (hydroxypropylcellulose) (HPC) 104 % of control | [11] 105 % of control | dose: 400.0 mg/kg/injection, schedule: Q01DX001 (ip), vehicle: Klucel (hydroxypropylcellulose) (HPC) 118 % of control | [12] 98 % of control

CC[N+](C)(CC)CCOC(=O)c1ccccc1Oc1ccc(C)cc1
inactive: [13] 96 % of control

CCCCCCP(=O)(CCCCCC)CCCCCC (tested in a mixture with another compound)
inactive: [1] 100 % of control | [2] 86 % of control

CC1(C)N=C(N)N=C(N)N1c1cccc(OCCCOc2cccc([N+](=O)[O-])c2)c1
inactive: dose: 5.0 mg/kg/injection, schedule: Q01DX001 (ip), vehicle: saline 100 % of control | dose: 10.0 mg/kg/injection, schedule: Q01DX001 (ip), vehicle: saline 97 % of control | dose: 20.0 mg/kg/injection, schedule: Q01DX001 (ip), vehicle: saline 97 % of control | dose: 40.0 mg/kg/injection, schedule: Q01DX001 (ip), vehicle: saline 100 % of control | dose: 80.0 mg/kg/injection, schedule: Q01DX001 (ip), vehicle: saline 95 % of control

Nc1ccc2c(c1)C(=NO)c1cc(N)ccc1-2
inactive: [8] 106 % of control | [9] 108 % of control

CC(=O)Nc1ccc2c(ccc3ccc4ccccc4c32)c1
inactive: [14] 102 % of control | [15] 105 % of control | [16] 105 % of control

CCOC(=O)NCC(CCN1CCCCC1)(c1cccc2ccccc12)C(C)C (stereo not drawn)
inactive: [17] 100 % of control | [18] 88 % of control

N#CCC[N+]1([O-])CCCCC1C(=O)O (stereo not drawn)
inactive: [19] 98 % of control | [20] 98 % of control

Nc1nc2c(c(=O)[nH]1)CN(C(CCc1ccc(N(CCCl)CCCl)cc1)C(=O)O)CN2 (stereo not drawn)
inactive: dose: 12.5 mg/kg/injection, schedule: Q01DX001 (ip), vehicle: carboxymethylcellulose (CMC) 111 % of control | dose: 25.0 mg/kg/injection, schedule: Q01DX001 (ip), vehicle: carboxymethylcellulose (CMC) 107 % of control | [7] 113 % of control | dose: 50.0 mg/kg/injection, schedule: Q01DX009 (ip), vehicle: carboxymethylcellulose (CMC) 101 % of control | [8] 111 % of control | dose: 100.0 mg/kg/injection, schedule: Q01DX009 (ip), vehicle: carboxymethylcellulose (CMC) 108 % of control

CNC(=S)N(N)c1ccccc1
inactive: [10] 104 % of control | [17] 93 % of control | [11] 101 % of control | [18] 103 % of control | [21] 101 % of control

CC(C)N(C(C)C)C(C)CCNc1c2ccccc2nc2cc(Cl)ccc12 (stereo not drawn)
inactive: dose: 1.88 mg/kg/injection, schedule: Q01DX Z (ip), vehicle: methylcellulose (MC) 113 % of control | dose: 3.0 mg/kg/injection, schedule: Q01DX Z (ip), vehicle: methylcellulose (MC) 117 % of control | dose: 3.75 mg/kg/injection, schedule: Q01DX Z (ip), vehicle: methylcellulose (MC) 115 % of control | dose: 5.0 mg/kg/injection, schedule: Q01DX Z (ip), vehicle: methylcellulose (MC) 116 % of control | dose: 6.0 mg/kg/injection, schedule: Q04DX003 (ip), vehicle: saline 98 % of control | dose: 7.5 mg/kg/injection, schedule: Q01DX Z (ip), vehicle: methylcellulose (MC) 110 % of control | dose: 12.0 mg/kg/injection, schedule: Q04DX003 (ip), vehicle: saline 102 % of control | dose: 15.0 mg/kg/injection, schedule: Q01DX Z (ip), vehicle: methylcellulose (MC) 109 % of control | dose: 24.0 mg/kg/injection, schedule: Q04DX003 (ip), vehicle: saline 105 % of control

CCCCCCC(O)C/C=C\CCCCCCCCO (stereo not drawn)
inactive: dose: 100.0 mg/kg/injection, schedule: Q01DX009 (ip), vehicle: saline 121 % of control | [13] 101 % of control | dose: 200.0 mg/kg/injection, schedule: Q01DX009 (ip), vehicle: saline 115 % of control | [22] 99 % of control | dose: 400.0 mg/kg/injection, schedule: Q01DX009 (ip), vehicle: saline 103 % of control | [23] 104 % of control

CCOC(=O)C(C(C)=O)C(CCc1cc(OC)ccc1OC)C(C(C)=O)C(=O)OCC (stereo not drawn)
inactive: [19] 109 % of control | [20] 101 % of control | dose: 400.0 mg/kg/injection, schedule: Q01DX001 (ip), vehicle: saline 97 % of control

CCOc1ccc(N(O)C(C)=O)cc1
inactive: [13] 91 % of control | [22] 100 % of control | [23] 96 % of control

COC(c1ccccc1)[CH]([Hg][Br])C(=O)OC1CC2CCC1(C)C2(C)C (stereo not drawn)
inactive: [7] 93 % of control

O=Cc1c(Cl)[nH]c2ccccc12
inactive: dose: 50.0 mg/kg/injection, schedule: Q04DX002 (ip), vehicle: Klucel (hydroxypropylcellulose) (HPC) 90 % of control | [14] 93 % of control | [15] 101 % of control

NC(=O)c1ccccc1NC(=O)Nc1cccc(C(F)(F)F)c1
inactive: [10] 86 % of control | [14] 102 % of control | [11] 89 % of control | [15] 105 % of control | [12] 93 % of control | [16] 108 % of control

N#Cc1cc[n+](Cc2ccc([N+](=O)[O-])cc2)cc1
inactive: [19] 104 % of control | [20] 98 % of control

CCN(C)C(=O)Nc1ccc(N)cc1
inactive: dose: 100.0 mg/kg/injection, schedule: Q04DX002 (ip), vehicle: saline 101 % of control | dose: 200.0 mg/kg/injection, schedule: Q04DX002 (ip), vehicle: saline 104 % of control | dose: 400.0 mg/kg/injection, schedule: Q04DX002 (ip), vehicle: saline 108 % of control

OCCCNc1nc2ccc(Br)cc2c2ccccc12
inactive: [10] 100 % of control | [17] 108 % of control | [11] 89 % of control | [18] 102 % of control | [12] 95 % of control | [21] 102 % of control
